From ChEMBL document CHEMBL4020788, “Synthesis, SAR and molecular docking studies of benzo[d]thiazole-hydrazones as potential antibacterial and antifungal agents” (2017)
Calls of active or inactive are those of the source. The rule behind the calls is not given here.

Assays:
Format in all cases: functional
Staphylococcus aureus [1] = experiment: Antibacterial activity against Staphylococcus aureus at 25 ug/ml after 24 hrs by agar well diffusion method
Staphylococcus aureus [2] = experiment: Antibacterial activity against Staphylococcus aureus at 50 ug/ml after 24 hrs by agar well diffusion method
Staphylococcus aureus [3] = experiment: Antibacterial activity against Staphylococcus aureus at 75 ug/ml after 24 hrs by agar well diffusion method; details: for zone of inhibition at 75 µg/mL: read-out: DIZ
Staphylococcus aureus [4] = experiment: Antibacterial activity against Staphylococcus aureus at 100 ug/ml after 24 hrs by agar well diffusion method; details: for zone of inhibition at 100 µg/mL: read-out: DIZ
Bacillus subtilis [5] = experiment: Antibacterial activity against Bacillus subtilis at 25 ug/ml after 24 hrs by agar well diffusion method; details: for zone of inhibition at 25 µg/mL: read-out: DIZ
Bacillus subtilis [6] = experiment: Antibacterial activity against Bacillus subtilis at 50 ug/ml after 24 hrs by agar well diffusion method; details: read-out: DIZ
Bacillus subtilis [7] = experiment: Antibacterial activity against Bacillus subtilis at 75 ug/ml after 24 hrs by agar well diffusion method; details: read-out: DIZ
Bacillus subtilis [8] = experiment: Antibacterial activity against Bacillus subtilis at 100 ug/ml after 24 hrs by agar well diffusion method; details: read-out: DIZ
Escherichia coli [9] = experiment: Antibacterial activity against Escherichia coli at 25 ug/ml after 24 hrs by agar well diffusion method; details: read-out: DIZ
Escherichia coli [10] = experiment: Antibacterial activity against Escherichia coli at 50 ug/ml after 24 hrs by agar well diffusion method; details: read-out: DIZ
Escherichia coli [11] = experiment: Antibacterial activity against Escherichia coli at 75 ug/ml after 24 hrs by agar well diffusion method; details: read-out: DIZ
Escherichia coli [12] = experiment: Antibacterial activity against Escherichia coli at 100 ug/ml after 24 hrs by agar well diffusion method; details: read-out: DIZ
Klebsiella pneumoniae [13] = experiment: Antibacterial activity against Klebsiella pneumoniae at 25 ug/ml after 24 hrs by agar well diffusion method; details: for zone of inhibition at 25 µg/mL: read-out: DIZ
Klebsiella pneumoniae [14] = experiment: Antibacterial activity against Klebsiella pneumoniae at 50 ug/ml after 24 hrs by agar well diffusion method; details: for zone of inhibition at 50 µg/mL: read-out: DIZ
Klebsiella pneumoniae [15] = experiment: Antibacterial activity against Klebsiella pneumoniae at 75 ug/ml after 24 hrs by agar well diffusion method; details: read-out: DIZ
Klebsiella pneumoniae [16] = experiment: Antibacterial activity against Klebsiella pneumoniae at 100 ug/ml after 24 hrs by agar well diffusion method; details: read-out: DIZ
Staphylococcus aureus [17] = experiment: Antibacterial activity against methicillin resistant Staphylococcus aureus MRSA090 at 25 ug/ml after 24 hrs by agar well diffusion method; details: MRSA090, 24 h, read-out: DIZ
Staphylococcus aureus [18] = experiment: Antibacterial activity against methicillin resistant Staphylococcus aureus MRSA090 at 50 ug/ml after 24 hrs by agar well diffusion method; details: MRSA090, 24 h, read-out: DIZ
Staphylococcus aureus [19] = experiment: Antibacterial activity against methicillin resistant Staphylococcus aureus MRSA090 at 75 ug/ml after 24 hrs by agar well diffusion method; details: MRSA090, 24 h, read-out: DIZ
Staphylococcus aureus [20] = experiment: Antibacterial activity against methicillin resistant Staphylococcus aureus MRSA090 at 100 ug/ml after 24 hrs by agar well diffusion method; details: MRSA090, 24 h, read-out: DIZ
Aspergillus niger [21] = experiment: Antifungal activity against Aspergillus niger at 25 ug/ml after 48 hrs by agar well diffusion method; details: for zone of inhibition at 25 µg/mL: read-out: DIZ
Aspergillus niger [22] = experiment: Antifungal activity against Aspergillus niger at 50 ug/ml after 48 hrs by agar well diffusion method; details: for zone of inhibition at 50 µg/mL: read-out: DIZ
Aspergillus niger [23] = experiment: Antifungal activity against Aspergillus niger at 75 ug/ml after 48 hrs by agar well diffusion method; details: for zone of inhibition at 75 µg/mL: read-out: DIZ
Aspergillus niger [24] = experiment: Antifungal activity against Aspergillus niger at 100 ug/ml after 48 hrs by agar well diffusion method; details: for zone of inhibition at 100 µg/mL: read-out: DIZ
Fusarium verticillioides [25] = experiment: Antifungal activity against Fusarium moniliforme at 25 ug/ml after 48 hrs by agar well diffusion method
Fusarium verticillioides [26] = experiment: Antifungal activity against Fusarium moniliforme at 50 ug/ml after 48 hrs by agar well diffusion method
Fusarium verticillioides [27] = experiment: Antifungal activity against Fusarium moniliforme at 75 ug/ml after 48 hrs by agar well diffusion method; details: for zone of inhibition at 75 µg/mL: read-out: DIZ
Fusarium verticillioides [28] = experiment: Antifungal activity against Fusarium moniliforme at 100 ug/ml after 48 hrs by agar well diffusion method; details: for zone of inhibition at 100 µg/mL: read-out: DIZ
Fusarium oxysporum [29] = experiment: Antifungal activity against Fusarium oxysporum at 25 ug/ml after 48 hrs by agar well diffusion method; details: for zone of inhibition at 25 µg/mL: read-out: DIZ
Fusarium oxysporum [30] = experiment: Antifungal activity against Fusarium oxysporum at 50 ug/ml after 48 hrs by agar well diffusion method; details: for zone of inhibition at 50 µg/mL: read-out: DIZ
Fusarium oxysporum [31] = experiment: Antifungal activity against Fusarium oxysporum at 75 ug/ml after 48 hrs by agar well diffusion method; details: for zone of inhibition at 75 µg/mL: read-out: DIZ
Fusarium oxysporum [32] = experiment: Antifungal activity against Fusarium oxysporum at 100 ug/ml after 48 hrs by agar well diffusion method; details: for zone of inhibition at 100 µg/mL: read-out: DIZ

Row | Structure (SMILES) | diameter of the inhibition zone (DIZ) (Staphylococcus aureus [1]) | diameter of the inhibition zone (DIZ) (Staphylococcus aureus [2]) | zone of inhibition at 25 µg/mL (Bacillus subtilis [5]) | zone of inhibition at 50 µg/mL (Bacillus subtilis [6]) | zone of inhibition at 75 µg/mL (Bacillus subtilis [7]) | zone of inhibition at 100 µg/mL (Bacillus subtilis [8]) | zone of inhibition at 25 µg/mL (Escherichia coli [9]) | zone of inhibition at 50 µg/mL (Escherichia coli [10]) | zone of inhibition at 75 µg/mL (Escherichia coli [11]) | zone of inhibition at 100 µg/mL (Escherichia coli [12]) | zone of inhibition at 75 µg/mL (Klebsiella pneumoniae [15]) | zone of inhibition at 100 µg/mL (Klebsiella pneumoniae [16]) | zone of inhibition at 25 µg/mL (Staphylococcus aureus [17]) | zone of inhibition at 50 µg/mL (Staphylococcus aureus [18]) | zone of inhibition at 75 µg/mL (Staphylococcus aureus [19]) | zone of inhibition at 100 µg/mL (Staphylococcus aureus [20]) | diameter of the inhibition zone (DIZ) (Fusarium verticillioides [25]) | diameter of the inhibition zone (DIZ) (Fusarium verticillioides [26]) | zone of inhibition at 75 µg/mL (Staphylococcus aureus [3]) | zone of inhibition at 100 µg/mL (Staphylococcus aureus [4]) | also measured
1 | Cc1cccc2nc(N/N=C/c3ccc(O)cc3Br)sc12 | inactive | inactive | 7 mm | 11 mm | 13 mm | 15 mm | 6 mm | 9 mm | 11 mm | 16 mm | 11 mm | 14 mm | 7 mm | 11 mm | 14 mm | 17 mm | inactive | inactive |  |  | diameter of the inhibition zone (DIZ) (Staphylococcus aureus [3]): inactive; diameter of the inhibition zone (DIZ) (Staphylococcus aureus [4]): inactive; diameter of the inhibition zone (DIZ) (Klebsiella pneumoniae [13]): inactive; diameter of the inhibition zone (DIZ) (Klebsiella pneumoniae [14]): inactive; diameter of the inhibition zone (DIZ) (Aspergillus niger [21]): inactive; diameter of the inhibition zone (DIZ) (Aspergillus niger [22]): inactive; diameter of the inhibition zone (DIZ) (Aspergillus niger [23]): inactive; diameter of the inhibition zone (DIZ) (Aspergillus niger [24]): inactive; diameter of the inhibition zone (DIZ) (Fusarium verticillioides [27]): inactive; diameter of the inhibition zone (DIZ) (Fusarium verticillioides [28]): inactive; diameter of the inhibition zone (DIZ) (Fusarium oxysporum [29]): inactive; diameter of the inhibition zone (DIZ) (Fusarium oxysporum [30]): inactive; diameter of the inhibition zone (DIZ) (Fusarium oxysporum [31]): inactive; diameter of the inhibition zone (DIZ) (Fusarium oxysporum [32]): inactive
2 | Cc1cccc2nc(N/N=C/c3ccc([N+](=O)[O-])cc3)sc12 |  |  |  | 4 mm | 8 mm | 11 mm | 4 mm | 18 mm | 11 mm | 14 mm | 14 mm | 16 mm | 3 mm | 7 mm | 10 mm | 16 mm | inactive | inactive | 12 mm | 14 mm | zone of inhibition at 25 µg/mL (Staphylococcus aureus [1]; read-out: DIZ): 7 mm; zone of inhibition at 50 µg/mL (Staphylococcus aureus [2]; read-out: DIZ): 9 mm; diameter of the inhibition zone (DIZ) (Bacillus subtilis [5]): inactive; zone of inhibition at 25 µg/mL (Klebsiella pneumoniae [13]): 7 mm; zone of inhibition at 50 µg/mL (Klebsiella pneumoniae [14]): 11 mm; zone of inhibition at 25 µg/mL (Aspergillus niger [21]): 6 mm; zone of inhibition at 50 µg/mL (Aspergillus niger [22]): 13 mm; zone of inhibition at 75 µg/mL (Aspergillus niger [23]): 17 mm; zone of inhibition at 100 µg/mL (Aspergillus niger [24]): 21 mm; zone of inhibition at 75 µg/mL (Fusarium verticillioides [27]): 4 mm; zone of inhibition at 100 µg/mL (Fusarium verticillioides [28]): 8 mm; zone of inhibition at 25 µg/mL (Fusarium oxysporum [29]): 6 mm; zone of inhibition at 50 µg/mL (Fusarium oxysporum [30]): 10 mm; zone of inhibition at 75 µg/mL (Fusarium oxysporum [31]): 14 mm; zone of inhibition at 100 µg/mL (Fusarium oxysporum [32]): 21 mm
3 | Cc1cccc2nc(N/N=C/c3ccc(Br)cc3)sc12 | inactive | inactive | 4 mm | 7 mm | 11 mm | 13 mm | 3 mm | 7 mm | 11 mm | 14 mm | 14 mm | 17 mm | 9 mm | 11 mm | 15 mm | 19 mm |  |  | 5 mm | 9 mm | zone of inhibition at 25 µg/mL (Klebsiella pneumoniae [13]): 6 mm; zone of inhibition at 50 µg/mL (Klebsiella pneumoniae [14]): 11 mm; zone of inhibition at 25 µg/mL (Aspergillus niger [21]): 14 mm; zone of inhibition at 50 µg/mL (Aspergillus niger [22]): 18 mm; zone of inhibition at 75 µg/mL (Aspergillus niger [23]): 23 mm; zone of inhibition at 100 µg/mL (Aspergillus niger [24]): 28 mm; zone of inhibition at 25 µg/mL (Fusarium verticillioides [25]; read-out: DIZ): 12 mm; zone of inhibition at 50 µg/mL (Fusarium verticillioides [26]; read-out: DIZ): 17 mm; zone of inhibition at 75 µg/mL (Fusarium verticillioides [27]): 24 mm; zone of inhibition at 100 µg/mL (Fusarium verticillioides [28]): 28 mm; zone of inhibition at 25 µg/mL (Fusarium oxysporum [29]): 13 mm; zone of inhibition at 50 µg/mL (Fusarium oxysporum [30]): 18 mm; zone of inhibition at 75 µg/mL (Fusarium oxysporum [31]): 23 mm; zone of inhibition at 100 µg/mL (Fusarium oxysporum [32]): 29 mm
